The results in this text go back to ChEMBL document CHEMBL4229406, “The tyrosinase inhibitory effects of isoxazolone derivatives with a (Z)-β-phenyl-α, β-unsaturated carbonyl scaffold” (Bioorg Med Chem, 2018).

Data set [1] can be described thus: Antioxidant activity assessed as DPPH-radical scavenging activity at 1 mM incubated for 30 mins under dark condition. The class given is functional.
The target of data set [2] is T1, Tyrosinase (Agaricus bisporus) (UniProt O42713).
T1 sequence (whole entry): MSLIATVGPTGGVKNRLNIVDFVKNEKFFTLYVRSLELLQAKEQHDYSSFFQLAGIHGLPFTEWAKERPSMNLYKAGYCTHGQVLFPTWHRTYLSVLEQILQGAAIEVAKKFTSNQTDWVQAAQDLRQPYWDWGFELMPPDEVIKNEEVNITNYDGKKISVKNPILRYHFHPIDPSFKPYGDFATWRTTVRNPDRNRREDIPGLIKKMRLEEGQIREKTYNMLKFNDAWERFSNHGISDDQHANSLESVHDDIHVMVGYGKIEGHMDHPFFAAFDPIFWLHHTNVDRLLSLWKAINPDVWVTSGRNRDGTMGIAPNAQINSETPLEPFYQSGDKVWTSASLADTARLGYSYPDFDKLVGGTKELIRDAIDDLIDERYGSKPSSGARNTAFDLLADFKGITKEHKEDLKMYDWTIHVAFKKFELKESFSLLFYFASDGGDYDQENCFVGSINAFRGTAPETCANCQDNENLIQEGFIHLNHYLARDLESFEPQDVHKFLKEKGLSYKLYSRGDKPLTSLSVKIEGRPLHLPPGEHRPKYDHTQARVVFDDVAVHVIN
The following applies: 500 uM.
Description: Inhibition of mushroom tyrosinase at 500 uM using L-tyrosine as substrate measured after 30 mins relative to control

The target in another data set is T2, Tyrosinase (Agaricus bisporus, UniProt O42713).
T2 sequence (O42713 whole entry): T1 sequence (whole entry)
Description: Inhibition of mushroom tyrosinase using L-tyrosine as substrate measured after 30 mins.

Data set [3] in a line: Cytotoxicity against mouse B16F10 cells assessed as cell viability at 5 uM after 24 hrs by MTT assay relative to control. It is filed as cell-based, B16-F10. The following applies: read-out: Activity.
Data set [4] deals with T3, Tyrosinase (Mus musculus) (UniProt P11344).
T3 sequence (whole entry): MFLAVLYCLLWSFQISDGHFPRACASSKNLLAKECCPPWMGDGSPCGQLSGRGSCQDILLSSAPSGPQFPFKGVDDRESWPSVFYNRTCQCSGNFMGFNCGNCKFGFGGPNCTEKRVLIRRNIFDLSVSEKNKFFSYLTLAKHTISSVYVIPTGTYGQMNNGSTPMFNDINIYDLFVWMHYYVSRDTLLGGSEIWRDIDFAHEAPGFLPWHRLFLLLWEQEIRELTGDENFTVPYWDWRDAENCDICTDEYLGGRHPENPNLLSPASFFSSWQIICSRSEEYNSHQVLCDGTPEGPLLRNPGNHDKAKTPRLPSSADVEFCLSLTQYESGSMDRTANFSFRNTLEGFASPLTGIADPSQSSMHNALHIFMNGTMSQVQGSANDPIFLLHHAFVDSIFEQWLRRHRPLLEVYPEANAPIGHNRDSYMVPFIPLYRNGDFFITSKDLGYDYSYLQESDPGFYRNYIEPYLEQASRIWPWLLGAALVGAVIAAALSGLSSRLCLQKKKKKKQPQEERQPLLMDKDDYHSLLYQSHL
The data set is described as follows: Inhibition of tyrosinase in alpha-MSH stimulated mouse B16F10 cells using L-dopa as substrate pretreated for 24 hrs followed by substrate addition and measured after 30 mins.

For data set [5], the target named is T1, Tyrosinase (Agaricus bisporus). The data set is described as follows: Competitive inhibition of mushroom tyrosinase using varying levels of L-tyrosine as substrate measured after 30 mins by Lineweaver-Burk plot analysis.
Data set [6] can be described thus: Cytotoxicity against mouse B16F10 cells assessed as cell viability at 25 uM after 24 hrs by MTT assay relative to control. It is filed as cell-based, B16-F10. The following applies: read-out: Activity.
Data set [7] can be described thus: Cytotoxicity against mouse B16F10 cells assessed as cell viability at 10 uM after 24 hrs by MTT assay relative to control. It is filed as cell-based, B16-F10. The following applies: read-out: Activity.
The next data set has as its system B16-F10. The data set is described as follows: Antimelanogenic activity in mouse B16F10 cells assessed as inhibition of alpha-MSH-stimulated melanin synthesis measured after 24 hrs by ELISA. The class given is functional, cell-based.

Each structure is given as a SMILES string.

For the molecule `COc1cc(/C=C2\C(=O)ON=C2c2ccccc2)ccc1O`, the Activity in data set [1] is 75.3%.

For `O=C1O[C@H]([C@@H](O)CO)C(O)=C1O`, in [1], the Activity worked out at 87.5%.

In the case of `O=C1ON=C(c2ccccc2)/C1=C/c1ccc(O)c(O)c1`, the Activity in [1] was determined as 98.6%.

With `COc1ccc(/C=C2\C(=O)ON=C2c2ccccc2)cc1`, in [1], the Activity amounted to 47.2%.

Take `OC[C@H]1O[C@@H](Oc2ccc(O)cc2)[C@H](O)[C@@H](O)[C@@H]1O`: the inhibition in data set [2] is 32.6%.

Consider `O=C1ON=C(c2ccccc2)/C1=C/c1ccccc1O`, for which, in data set [1], the Activity worked out at 74.4%.

Turning to `COc1ccc(/C=C2\C(=O)ON=C2c2ccccc2)c(OC)c1`, the Activity in [1] turned out to be 41.8%.

With `COc1ccc(/C=C2\C(=O)ON=C2c2ccccc2)cc1O`, in data set [1], the Activity stood at 54.2%.

With `CCOc1ccc(/C=C2\C(=O)ON=C2c2ccccc2)cc1O`, the Activity in data set [1] stood at 66.4%.

`COc1ccc(/C=C2\C(=O)ON=C2c2ccccc2)cc1OC`: in data set [1], the Activity came out at 49.8%.

For `O=C1ON=C(c2ccccc2)/C1=C/c1ccc(O)cc1O`, the Activity in [1] turned out to be 46%. This molecule also registered an IC50 against Tyrosinase of 32.1 µM.

Consider `O=C1ON=C(c2ccccc2)/C1=C/c1ccc(O)c(Br)c1`, for which, in data set [3], the viability at 24 h, 5 µM came to 100%. Moreover, the inhibition result (in [4]; in data set [5]; with B16-F10) was “Dose-dependent effect” in each case. Further, the viability at 24 h, 25 µM in data set [6] worked out at 96.3%. Further, the Activity in data set [1] turned out to be 82.6%. Also, in data set [7], the viability at 24 h, 10 µM was 98.7%. The molecule also had an IC50 against Tyrosinase of 14.6 µM.

For `O=C1ON=C(c2ccccc2)/C1=C/c1ccc(O)cc1`, the Activity in data set [1] stood at 48.4%.

On to `COc1cc(/C=C2\C(=O)ON=C2c2ccccc2)cc(OC)c1O`, for which, in data set [1], the Activity turned out to be 94.8%.
